Where two headings read alike, the source gives them in different places.
Tests used:
[1] = molecular target: T1, acyl-CoA: cholesterol acyltransferase (ACAT) (Rattus norvegicus, UniProt Q7TQM4); experiment: in vitro ACAT inhibition test in rat liver microsomes (LAI); format: biochemical
T1 construct: tissue preparation containing rat liver microsomes; from tissue; host or cells: rat liver microsomes
T1 sequence (Q7TQM4 1-524): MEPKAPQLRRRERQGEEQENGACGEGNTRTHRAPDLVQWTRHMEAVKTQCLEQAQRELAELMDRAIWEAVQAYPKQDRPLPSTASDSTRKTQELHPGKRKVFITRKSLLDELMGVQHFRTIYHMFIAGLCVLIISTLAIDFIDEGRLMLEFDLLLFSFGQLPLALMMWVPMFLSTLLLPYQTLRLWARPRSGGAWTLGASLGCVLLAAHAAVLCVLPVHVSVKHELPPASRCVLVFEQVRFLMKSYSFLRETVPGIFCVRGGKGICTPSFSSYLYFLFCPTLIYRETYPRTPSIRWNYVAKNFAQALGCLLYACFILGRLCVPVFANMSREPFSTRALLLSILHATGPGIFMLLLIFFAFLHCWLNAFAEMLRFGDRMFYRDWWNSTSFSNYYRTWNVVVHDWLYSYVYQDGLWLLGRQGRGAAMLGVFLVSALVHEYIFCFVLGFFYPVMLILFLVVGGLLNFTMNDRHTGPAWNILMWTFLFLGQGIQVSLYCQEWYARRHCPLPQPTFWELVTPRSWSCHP
Protocol: The ability of representative compounds of the present invention to inhibit ACAT was measured using an in vitro test more fully described in F.J. Field and R.G. Salone, Biochemica et Biophysica Acta, 772:557-570 (1982). The test assesses the ability of a test compound to inhibit the acylation of cholesterol by oleic acid by measuring the amount of radiolabeled cholesterol oleate formed from radiolabeled oleic acid in a tissue preparation containing rat liver microsomes (designated LAI).

[2] = test system: male Sprague-Dawley rats; experiment: in vivo screen APCC in cholesterol-fed rats; details: Rattus norvegicus, po, 30 mg/kg by gavage, high fat, high cholesterol diet overnight, versus vehicle and diet only, read-out: APCC percent change in total cholesterol (%TC) from control animals
Excerpt: In an in vivo screen designated APCC, male Sprague-Dawley rats (200-225 g body weight) were randomly divided into treatment groups and dosed at 4 PM with either vehicle (CMC/Tween) or suspensions of invention compounds in vehicle. The normal chow diet was then replaced with a high fat, high cholesterol diet (5.5% peanut oil, 1.5% cholesterol, and 0.5% cholic acid). The rats consumed this diet ad libitum during the night and were sacrificed at 8 AM to obtain blood samples for cholesterol analysis using standard procedures. Statistical differences between mean cholesterol values for the same vehicle were determined using analysis of variance followed by Fisher's least significant test. The results of this trial for representative compounds of the present invention also appear in Table I as the percent change in total cholesterol (%TC) from control animals given vehicle and diet only. All compounds in the APCC test reported in Table 1 were administered by gavage at 30 mg/kg.

[3] = rat liver microsomes, formation of radiolabeled cholesterol oleate from radiolabeled oleic acid, read-out: LAI IC50

CC(C)c1cccc(C(C)C)c1OS(=O)(=O)CC(=O)O [Example 5, 2,6-Diisopropylphenoxysulfonyl acetic acid]
IC50 [1]: > 50000 nM
change in vivo at 30 mg/kg [2]: -31%

CC(C)c1cccc(C(C)C)c1OC(=O)CS(=O)(=O)Oc1c(C(C)C)cccc1C(C)C [Example 8, 2,6-Diisopropylphenyl (2,6-diisopropylphenoxycarbonyl)methylsulfonate]
IC50 [1, 3]: 1500 nM
change in vivo at 30 mg/kg [2]: -21%

CC(C)c1cc(C(C)C)c(OS(=O)(=O)CC(=O)Nc2c(C(C)C)cccc2C(C)C)c(C(C)C)c1 [Example 9]
IC50 [1, 3]: 7 nM
change in vivo at 30 mg/kg [2]: -61%

CSc1ccc(CN(C(=O)CS(=O)(=O)Oc2c(C(C)C)cc(C(C)C)cc2C(C)C)C(C)C)cc1 [Example 7, 2,4,6-Triisopropylphenyl N-isopropyl-N-(4-thiomethylphenylmethyl)carbamoylmethyl sulfonate]
IC50 [1, 3]: 3600 nM
change in vivo at 30 mg/kg [2]: -17%

CCCCCCCCCCCCNC(=O)CS(=O)(=O)Oc1c(C(C)C)cccc1C(C)C [Example 3, 2,6-Diisopropylphenyl N-dodecyl carbamoylmethyl sulfonate]
IC50 [1, 3]: 3000 nM
change in vivo at 30 mg/kg [2]: -3%

CC(C)c1cccc(C(C)C)c1NC(=O)CS(=O)(=O)Oc1c(C(C)C)cccc1C(C)C [Example 10, 2.6-Diisopropylphenyl N-(2,6-diisopropylphenyl)carbamoylmethylsulfonate]
IC50 [1, 3]: 27 nM
change in vivo at 30 mg/kg [2]: -42%

CC(C)c1cc(C(C)C)c(OS(=O)(=O)CC(=O)N(Cc2ccccc2)Cc2ccccc2)c(C(C)C)c1 [Example 1, 2,4,6-Triisopropylphenyl N,N-dibenzylcarbamoylmethylsulfonate]
IC50 [1, 3]: > 5000 nM
change in vivo at 30 mg/kg [2]: -7%

CC(C)c1cc(C(C)C)c(NC(=O)CS(=O)(=O)Oc2c(C(C)C)cccc2C(C)C)c(C(C)C)c1 [Example 6]
IC50 [1, 3]: 1660 nM
change in vivo at 30 mg/kg [2]: -31%

CC(C)c1cccc(C(C)C)c1OS(=O)(=O)CC(=O)NC(c1ccccc1)c1ccccc1 [Example 4, 2,6-Diisopropylphenyl N-diphenylmethylcarbamoylmethyl sulfonate]
IC50 [1, 3]: 1800 nM
change in vivo at 30 mg/kg [2]: -43%

CC(C)c1cc(C(C)C)c(OS(=O)(=O)CC(=O)NC(c2ccccc2)c2ccccc2)c(C(C)C)c1 [Example 2, 2,4,6-Triisopropylphenyl N-diphenylmethylcarbamoylmethyl sulfonate]
IC50 [1, 3]: 790 nM
change in vivo at 30 mg/kg [2]: -19%
